Here are results for eleven molecules from patent US12668600B2 (Kumquat Biosciences Inc., priority 2023, dated 2026).

Format in all cases: biochemical
One assay addresses T1, KRAS G12V (Homo sapiens, UniProt P01116, G12V).
T1 construct: made in house; host or cells: E. coli, e.g. BL21 (DE3)
Nature of the assay: HTRF KRAS-SOS1 interaction assay, KRAS G12V. The settings on record: binned ≤2 μM / >2 μM, read-out: Inhibition of KRAS G12V (IC50). The procedure, abridged: (§1)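 GST-KRAS + anti-GST-Eu; His-hSOS1 + anti-6His-XL665; cpd in DMSO, duplicate, 10–0.01 μM; ~10 min incubation; HTRF ex 337/em 620, 665 nm; IC50 fitted on 665/620 ratio.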
For orientation: TR-FRET usually uses a lanthanide donor and a delayed reading to cut background.

Another assay addresses T2, KRAS G12D (Homo sapiens, UniProt P01116, G12D).
T2 construct: made in house; host or cells: E. coli, e.g. BL21 (DE3)
The assay can be described thus: HTRF KRAS-SOS1 interaction assay, KRAS G12D. The settings on record: binned ≤2 μM / >2 μM, read-out: Inhibition of KRAS G12D (IC50). An outline of the steps: as §1

In the next assay the target is T3, KRAS WT (Homo sapiens, UniProt P01116).
T3 construct: made in house; host or cells: E. coli, e.g. BL21 (DE3)
Nature of the assay: HTRF KRAS-SOS1 interaction assay, wildtype KRAS. The note with it: binned ≤2 μM / >2 μM, read-out: Inhibition of KRAS WT (IC50). The procedure, abridged: as §1

The next assay deals with T4, KRAS G12S (Homo sapiens, UniProt P01116, G12S).
T4 construct: made in house; host or cells: E. coli, e.g. BL21 (DE3)
Nature of the assay: HTRF KRAS-SOS1 interaction assay, KRAS G12S. The settings on record: binned ≤2 μM / >2 μM, read-out: Inhibition of KRAS G12S (IC50). The procedure, abridged:
as §1

Usually IC50 stands for the concentration that gives 50% inhibition.

Where only a bound is given, the exact number is not on record here.

T2 sequence (P01116 1-188 isoform P01116-2 G12D): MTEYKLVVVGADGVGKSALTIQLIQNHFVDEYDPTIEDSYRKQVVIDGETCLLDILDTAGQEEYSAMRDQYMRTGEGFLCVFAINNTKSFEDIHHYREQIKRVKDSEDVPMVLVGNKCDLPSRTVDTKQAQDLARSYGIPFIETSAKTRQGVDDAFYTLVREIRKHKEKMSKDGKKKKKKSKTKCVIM
T1 sequence (P01116 1-188 isoform P01116-2 G12V): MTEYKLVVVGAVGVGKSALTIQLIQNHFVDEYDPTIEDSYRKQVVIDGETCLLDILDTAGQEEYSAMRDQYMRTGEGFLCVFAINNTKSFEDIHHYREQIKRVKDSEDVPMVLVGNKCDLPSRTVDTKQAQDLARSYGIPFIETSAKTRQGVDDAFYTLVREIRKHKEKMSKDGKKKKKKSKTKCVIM
T4 sequence (P01116 1-188 isoform P01116-2 G12S): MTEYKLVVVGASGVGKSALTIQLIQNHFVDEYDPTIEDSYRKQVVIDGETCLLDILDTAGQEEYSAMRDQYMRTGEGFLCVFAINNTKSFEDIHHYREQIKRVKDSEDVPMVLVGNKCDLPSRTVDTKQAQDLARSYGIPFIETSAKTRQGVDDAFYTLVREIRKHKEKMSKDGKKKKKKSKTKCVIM
T3 sequence (P01116 1-188 isoform P01116-2): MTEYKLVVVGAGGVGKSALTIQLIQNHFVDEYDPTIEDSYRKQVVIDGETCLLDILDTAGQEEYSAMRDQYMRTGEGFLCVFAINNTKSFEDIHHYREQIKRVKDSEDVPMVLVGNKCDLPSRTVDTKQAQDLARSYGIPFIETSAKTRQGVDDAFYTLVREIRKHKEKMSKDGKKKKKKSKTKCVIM

On to `CO[C@H]1CCN(C)[C@@H]1[C@H](C)Oc1nc2c3c(c(C(F)(F)F)c(-c4ccc(F)c5sc(N)c(C#N)c45)c(F)c3n1)OCCN2[C@H](C)c1cc(Cl)cnc1N` [Compound 667, 2-amino-4-(4-((R)-1-(2-amino-5-chloropyridin-3-yl)ethyl)-10-fluoro-2-((S)-1-((2R,3S)-3-methoxy-1-methylpyrrolidin-2-yl)ethoxy)-8-(trifluoromethyl)-5,6-dihydro-4H-[1,4]oxazepino[5,6,7-de]quinazolin-9-yl)-7-fluorobenzo[b]thiophene-3-carbonitrile], for which the IC50 on KRAS G12V, on KRAS G12D, on KRAS WT and on KRAS G12S was ≤ 2000 nM each time.
In the case of `CCON=C(C)CC[C@H](c1cccnc1N)N1CCOc2c(C(F)(F)F)c(-c3ccc(F)c4sc(N)c(C#N)c34)c(F)c3nc(OC[C@@]45CCCN4C[C@H](F)C5)nc1c23` (mixture of isomers) [Compound 789, 2-amino-4-(4-((R)-1-(2-aminopyridin-3-yl)-4-(ethoxyimino)pentyl)-10-fluoro-2-(((2R,7aS)-2-fluorotetrahydro-1H-pyrrolizin-7a(5H)-yl)methoxy)-8-(trifluoromethyl)-5,6-dihydro-4H-[1,4]oxazepino[5,6,7-de]quinazolin-9-yl)-7-fluorobenzo[b]thiophene-3-carbonitrile], the 50% inhibitory concentration (IC50) on KRAS G12V, on KRAS G12D, on KRAS WT and at KRAS G12S was ≤ 2000 nM in each case.
For `C#C[C@H](c1cccnc1N)N1CCOc2c(Cl)c(-c3ccc(F)c4sc(N)c(C#N)c34)c(F)c3nc(OC[C@@]45CCCN4C[C@H](F)C5)nc1c23` [Compound 904, 2-amino-4-(4-((R)-1-(2-aminopyridin-3-yl)prop-2-yn-1-yl)-8-chloro-10-fluoro-2-(((2R,7aS)-2-fluorotetrahydro-1H-pyrrolizin-7a(5H)-yl)methoxy)-5,6-dihydro-4H-[1,4]oxazepino[5,6,7-de]quinazolin-9-yl)-7-fluorobenzo[b]thiophene-3-carbonitrile], the 50% inhibitory concentration (IC50) on KRAS G12V, at KRAS G12D, on KRAS WT and on KRAS G12S was ≤ 2000 nM each time.
For the molecule `C[C@H](c1cccnc1N)N1CCOc2c(C(F)(F)F)c(-c3ccc(F)c4sc(N)c(C#N)c34)c(F)c3nc(OC[C@@]45CCCN4CC(=C(F)F)C5)nc1c23` [Compound 856, 2-amino-4-(4-((R)-1-(2-aminopyridin-3-yl)ethyl)-2-(((S)-2-(difluoromethylene)tetrahydro-1H-pyrrolizin-7a(5H)-yl)methoxy)-10-fluoro-8-(trifluoromethyl)-5,6-dihydro-4H-[1,4]oxazepino[5,6,7-de]quinazolin-9-yl)-7-fluorobenzo[b]thiophene-3-carbonitrile], the 50% inhibitory concentration (IC50) at KRAS G12V, on KRAS G12D, on KRAS WT and at KRAS G12S was ≤ 2000 nM throughout.
As to `N#Cc1c(N)sc2c(F)ccc(-c3c(Cl)c4c5c(nc(OC[C@@]67CCCN6C[C@H](F)C7)nc5c3F)N(C(/C=C/C(F)(F)F)c3cccnc3N)CCO4)c12` (mixture of isomers) [Compound 828, 2-amino-4-(4-((E)-1-(2-aminopyridin-3-yl)-4,4,4-trifluorobut-2-en-1-yl)-8-chloro-10-fluoro-2-(((2R,7aS)-2-fluorotetrahydro-1H-pyrrolizin-7a(5H)-yl)methoxy)-5,6-dihydro-4H-[1,4]oxazepino[5,6,7-de]quinazolin-9-yl)-7-fluorobenzo[b]thiophene-3-carbonitrile], the IC50 on KRAS G12V, at KRAS G12D, at KRAS WT and on KRAS G12S was ≤ 2000 nM throughout.
`C[C@H](c1cccnc1N)N1CCOc2c(C(F)(F)F)c(-c3ccc(F)c4sc(N)c(C#N)c34)c(F)c3nc(OC[C@@]45CCCN4CC(CN(C)C)C5)nc1c23` (mixture of isomers) [Compound 721, 2-amino-4-(4-((R)-1-(2-aminopyridin-3-yl)ethyl)-2-(((7aS)-2-((dimethylamino)methyl)tetrahydro-1H-pyrrolizin-7a(5H)-yl)methoxy)-10-fluoro-8-(trifluoromethyl)-5,6-dihydro-4H-[1,4]oxazepino[5,6,7-de]quinazolin-9-yl)-7-fluorobenzo[b]thiophene-3-carbonitrile]: the IC50 on KRAS G12V, at KRAS G12D, on KRAS WT and on KRAS G12S was ≤ 2000 nM each time.
Turning to `C[C@H](c1cccnc1C(F)F)N1CCOc2c(C(F)(F)F)c(-c3ccc(F)c4sc(N)c(C#N)c34)c(F)c3nc(OC[C@@]45CCCN4C[C@H](F)C5)nc1c23` [Compound 747, 2-amino-4-(4-((R)-1-(2-(difluoromethyl)pyridin-3-yl)ethyl)-10-fluoro-2-(((2R,7aS)-2-fluorotetrahydro-1H-pyrrolizin-7a(5H)-yl)methoxy)-8-(trifluoromethyl)-5,6-dihydro-4H-[1,4]oxazepino[5,6,7-de]quinazolin-9-yl)-7-fluorobenzo[b]thiophene-3-carbonitrile], the IC50 on KRAS G12V, at KRAS G12D, on KRAS WT and on KRAS G12S was ≤ 2000 nM each time.
On to `N#Cc1c(N)sc2c(F)ccc(-c3c(C(F)(F)F)c4c5c(nc(OC[C@@]67CCCN6C[C@H](F)C7)nc5c3F)N([C@H](CCC(F)(F)F)c3cccnc3N)CCO4)c12` (atropisomer, axis not shown; (aS)) [Compound 614, 2-amino-4-((S)-4-((R)-1-(2-aminopyridin-3-yl)-4,4,4-trifluorobutyl)-10-fluoro-2-(((2R,7aS)-2-fluorotetrahydro-1H-pyrrolizin-7a (5H)-yl)methoxy)-8-(trifluoromethyl)-5,6-dihydro-4H-[1,4]oxazepino[5,6,7-de]quinazolin-9-yl)-7-fluorobenzo[b]thiophene-3-carbonitrile], for which the half-maximal inhibitory concentration (IC50) on KRAS G12V, on KRAS G12D, at KRAS WT and at KRAS G12S was ≤ 2000 nM in each case.
On to `Cc1c(F)c(N)cc(-c2nc3c4c(nc(OC[C@@]56CCCN5C[C@H](F)C6)nc4c2F)N([C@H](C)c2cccnc2N)C[C@H](C)O3)c1C(F)(F)F` (single isomer, unassigned) [Compound 687], for which the concentration for half-maximal inhibition (IC50) at KRAS G12V, at KRAS G12D, on KRAS WT and on KRAS G12S was ≤ 2000 nM each time.
For `N#Cc1c(N)sc2c(F)ccc(-c3c(Cl)c4c5c(nc(OC[C@@]67CCCN6C[C@H](F)C7)nc5c3F)N([C@H](C/C=C\C(F)(F)F)c3cccnc3N)CCO4)c12` [Compound 845, 2-amino-4-(4-((R,Z)-1-(2-aminopyridin-3-yl)-5,5,5-trifluoropent-3-en-1-yl)-8-chloro-10-fluoro-2-(((2R,7aS)-2-fluorotetrahydro-1H-pyrrolizin-7a(5H)-yl)methoxy)-5,6-dihydro-4H-[1,4]oxazepino[5,6,7-de]quinazolin-9-yl)-7-fluorobenzo[b]thiophene-3-carbonitrile], the IC50 on KRAS G12V, on KRAS G12D, on KRAS WT and at KRAS G12S was ≤ 2000 nM throughout.
For the molecule `Cc1cnc(N)c([C@@H](C)N2CCOc3c(C(F)(F)F)c(-c4ccc(F)c5sc(N)c(C#N)c45)c(F)c4nc(OC[C@@]56CCCN5C[C@H](F)C6)nc2c34)n1` (single isomer, unassigned) [Compound 718], the IC50 is ≤ 2000 nM on KRAS G12V, > 2000 nM on KRAS G12D, ≤ 2000 nM at KRAS WT and ≤ 2000 nM on KRAS G12S.
